Measured values published in patent publication US10426751B2, “Allosteric activators for treatment of phenylketonuria” (MCMASTER UNIVERSITY, priority 2015, dated 2019).
Numbering of substitutions follows the chain as printed.

How the values were obtained:
R261Q PAH mutant = target: T1, R261Q PAH mutant (Homo sapiens, UniProt P00439, R261Q); assay: PKU-mutant activity enhancement without chemical denaturants, CE-UV; type: biochemical; settings: ligand 20 μM, no denaturant
T1 construct: made in house; the paragraph itself says 'eukaryotic cell cultures' (pMAL vector)
T1 sequence (P00439 1-452 R261Q): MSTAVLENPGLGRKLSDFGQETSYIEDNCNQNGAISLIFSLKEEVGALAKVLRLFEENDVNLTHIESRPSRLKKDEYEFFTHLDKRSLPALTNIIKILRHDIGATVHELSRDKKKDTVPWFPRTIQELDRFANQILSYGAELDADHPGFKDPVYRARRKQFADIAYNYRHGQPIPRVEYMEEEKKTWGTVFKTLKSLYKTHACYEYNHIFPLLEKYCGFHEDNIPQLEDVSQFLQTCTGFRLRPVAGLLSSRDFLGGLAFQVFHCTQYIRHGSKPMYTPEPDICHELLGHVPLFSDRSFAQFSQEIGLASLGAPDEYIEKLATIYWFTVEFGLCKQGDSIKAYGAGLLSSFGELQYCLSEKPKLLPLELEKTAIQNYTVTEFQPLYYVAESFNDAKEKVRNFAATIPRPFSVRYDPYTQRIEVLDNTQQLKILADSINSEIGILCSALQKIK
Procedure: (§1) Expression of recombinant human WT-PAH and two PAH mutants ([…]) as fusion protein with maltose-binding protein in […] using pMAL expression vector was performed by the Martinez laboratory at the University of Bergen as described in Svebak et al., Biochem. J., 1995, 306, 589-597. Briefly, purification of the fusion proteins expressed in the pMAL vector system was performed using affinity chromatography followed by size-exclusion chromatography to remove low molecular weight components. Subsequently, the fusion proteins were cleaved by the restriction protease factor Xa and then phosphorylated by cyclic adenosine monophosphate (cAMP)-dependent protein kinase. The two clinically relevant PAH mutants, I65T and R261Q comprise single-point mutations in the regulatory and catalytic domain, respectively which are associated with highly variable phenotypes ranging from mild to classical PKU. For instance, patients with R261Q genotypes are reported to have inconsistent responses to BH4 therapy. In this work, I65T and R261Q PAH mutants were measured to have residual catalytic activities of (35±1)% and (5±0.5)% relative to WT PAH under standardized conditions (i.e., enzyme concentrations, assay buffer etc.), respectively. Stock solutions of WT-PAH and PAH mutants were prepared in enzyme reaction buffer (20 mM HEPES pH 7.0, 200 mM NaCl), and divided into separate 10 μL aliquots in 0.5 mL sterilized centrifuge tubes prior to storage at −80° C. Note that all enzyme assays were performed on aliquots of frozen enzymes thawed slowly in the fridge prior to daily use.
(§2) Tetrameric human phenylalanine hydroxylase (PAH) enzyme kinetic assays were performed off-line under standardized conditions prior to quantification of Tyr formation by CE with UV detection. Enzyme assays were performed by first mixing together Phe (1 mM), catalase (100 nM) and PAH (0.25 μM/subunit) in a reaction buffer (20 mM HEPES and 200 mM NaCl, pH 7.0) that were equilibrated at 25° C. for 4 min. Then, ferrous (Fe^2+) ammonium sulfate (100 μM) was added to the solution for 1 min and the reaction was subsequently initiated by addition of BH4 ([…]) with DTT (5 mM) using a total volume of 100 μL. The reaction mixture was then vortexed for 60 s followed by sonication for 2 min prior to centrifugation for 10 s at 4 g and storage in a refrigerator (+4° C.). An aliquot (20 μL) was withdrawn from the quenched enzyme reaction and placed in a micro vial containing Me-Tyr as IS (100 μM) prior to CE analysis. The stability of the quenched enzyme reaction was confirmed by intermittent analysis of PAH activity over 6 h at room temperature, and no significant changes in the Tyr/IS or Phe/Tyr response ratio were measured. Enzymatic reactions were performed for both WT-PAH and two PAH mutants by pre-equilibrating each ligand for 10 min prior to addition of ferrous ion and BH4/DDT as described in enzyme reaction protocol in order to assess for ligand-induced PAH inhibition or activation.
(§3) For instance, a recovery of 50% of residual enzyme activity was achieved without ligand when PAH was incubated in 8.0 M urea after its dilution to 0.5 M urea to trigger protein refolding. In order to further reduce enzyme reversibility, the recovery of PAH activity was subsequently assessed when it was incubated using 6.0 M GndCl for 10 min and subsequently diluted to 0.5 M GndCl in the presence or absence of screen-positive ligands (20 μM) in enzyme reaction buffer with PAH activity measurements performed by CE as described previously. […] Two lead compounds and several analogs of SA were subsequently tested using two different mutants of PAH (I65T and R261Q) without chemical denaturants after the two-tiered screening.

I65T PAH mutant = target: T2, I65T PAH mutant (Homo sapiens, UniProt P00439, I65T); assay: as above; type: biochemical; settings: ligand 20 μM, no denaturant
T2 construct: made in house; the paragraph itself says 'eukaryotic cell cultures' (pMAL vector)
T2 sequence (P00439 1-452 I65T): T1 sequence (P00439 1-452 R261Q) with I65T, Q261R
Procedure: as §1, §2, §3

PAH = target: T3, PAH (Homo sapiens, UniProt P00439); settings: read-out: Ki (weak competitive inhibitor to PAH); cited from earlier work
T3 sequence (P00439 1-452): T1 sequence (P00439 1-452 R261Q) with Q261R

Row | activity enhancement of R261Q PAH mutant (R261Q PAH mutant; listed as HI) [fold] | activity enhancement of I65T PAH mutant (I65T PAH mutant; listed as HI) [fold] | activity enhancement of R261Q PAH mutant (R261Q PAH mutant) [fold] | activity enhancement of I65T PAH mutant (I65T PAH mutant) [fold] | SMILES | Ki (PAH) [µM]
1 | ~1.5 | ~1.5 | – | – | Nc1c(-c2ccc3ccccc3n2)c2ccc([N+](=O)[O-])cc2c(=O)n1Cc1ccccc1 [compound III, 3-amino-2-benzyl-7-nitro-4-(2-quinolyl)-1,2-dihydroisoquinolin-1-one] | –
2 | – | – | ~1.5 | ~1.5 | Cc1ccnc(-n2c(=S)[nH]c3sc(C)c(C)c3c2=O)c1 [compound IV, 5,6-dimethyl-3-(4-methyl-2-pyridinyl)-2-thioxo-2,3-dihydrothieno[2,3-d] pyrimidin-4(1H)-one] | 200
